Reference: PMC10290954 (Nature Metabolism, 2023)

Tests used:
mouse GIP receptor [1] = biological target: T1, mouse GIP receptor (Mus musculus, UniProt Q0P543); experiment: [35S]GTPγS binding, mouse GIPR; assay type: biochemical; parameters: expressed in transfected cells; host or cells: low-receptor-density clonal cell lines; settings: mGIPR GTPgS
T1 sequence (Q0P543 19-460): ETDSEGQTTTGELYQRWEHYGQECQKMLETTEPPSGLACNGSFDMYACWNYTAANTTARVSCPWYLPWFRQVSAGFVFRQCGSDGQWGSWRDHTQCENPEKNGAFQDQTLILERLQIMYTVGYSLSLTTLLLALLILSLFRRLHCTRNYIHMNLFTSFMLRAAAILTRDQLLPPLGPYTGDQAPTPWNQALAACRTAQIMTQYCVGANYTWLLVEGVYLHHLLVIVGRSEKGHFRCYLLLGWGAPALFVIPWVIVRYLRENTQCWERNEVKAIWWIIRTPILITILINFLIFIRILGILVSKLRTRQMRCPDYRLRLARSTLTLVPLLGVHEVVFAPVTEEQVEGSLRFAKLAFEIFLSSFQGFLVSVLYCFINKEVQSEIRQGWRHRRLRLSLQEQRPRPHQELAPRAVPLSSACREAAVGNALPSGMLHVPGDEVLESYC
Description: (§1) Methods for these assays have been previously described. In brief, for GTPγs binding, the potency of ligands to stimulate receptor-dependent elevation of the GTPγS-bound Gαs subunit was determined using membrane preparations from low-receptor-density receptor clonal cell lines. Reactions were incubated for 30 min at room temperature in white, clear-bottom microtiter plates, and per cent of the maximal response was calculated using control wells as a reference. Relative EC50 values were derived by nonlinear regression analysis using the per cent response versus the concentration of ligand and fitted to a four-parameter logistic equation using GraphPad Prism 7 software. For cAMP assays, kinetic cAMP assays were performed in low-density receptor cell clones transfected with the Glosensor 22 F vector (Promega). Cells were equilibrated for 5–20 min and then 20 μl of 10× ligand was added and a luminescence time course was collected.

mouse GIP receptor [2] = biological target: T1, mouse GIP receptor; experiment: cAMP generation (Glosensor), mouse GIPR; assay type: cell-based; parameters: expressed in transfected cells; host or cells: low-receptor-density clonal cell lines; settings: for HillSlope / Span (four parameter fit) / Top (four parameter fit) / Bottom (four parameter fit): mGIP-R HEK-293 cells, cAMP formation; for HillSlope: four parameter fit - normalized; for Span (four parameter fit) / Top (four parameter fit) / Bottom (four parameter fit): max signal = 100 nM human GIP(1-42)NH2, normalized
Description: as §1, with “collected. Ligand (10×) was titrated by manual serial dilution in DMSO followed by step-down into assay buffer.” for “collected.”

human islets = experiment: Human islet perifusion, insulin secretion with Ex9 or hGIP(3-30) (Extended Data Fig. 2); assay type: cell-based; settings: two donor sets, 30 nM tirzepatide, antagonist 1 μM
Description: Human islets were obtained from both the Alberta Diabetes Institute and the Integrated Islet Distribution Program. All islets were obtained from consenting donors. Details for the general perifusion protocol have been previously described[21] and are similar to the mouse perifusion protocol. […] Each set of human islets consisted of n = 3 for each condition. These were averaged to generate a single data point (Fig. 2c). Insulin values were measured with a Lumit insulin immunoassay (Promega) using an EnVision plate reader (PerkinElmer). For the glucagon secretion experiments (Fig. 3), the average glucagon values were calculated during control (minutes 35–45) and stimulated (minutes 55–65) conditions. All peptides were used at 30 nM concentrations based on previous work[16]. Amino acids were used at concentrations of 3 mM based on previous work[11]. Glucagon was measured with a Lumit Glucagon Immunoassay Kit (cat. no. CS3037A02; Promega) using an EnVision plate reader (PerkinElmer). Somatostatin was measured with an ELISA assay (cat. no. FEK-060-14; Phoenix Pharmaceuticals). All data are expressed as the measured concentration relative to both flow rate and islet number (insulin, ng ml^–1 × (1/200 µl ml^–1) × (1/75 islets); glucagon, pM × (1/200 µl ml^–1) × (1/75 islets); somatostatin, pg ml^–1 × (1/200 µl ml^–1) × (1/75 islets))[49]. Human pancreatic islets and pancreas tissue were isolated from deceased donors under ethical approval from the Human Research Ethics Board of the University of Alberta (Pro00013094, Pro00001754) and obtained from the NIDDK-funded Integrated Islet Distribution Program (IIDP) (RRID: SCR _014387). All donors’ families gave informed consent for the use of pancreatic tissue in research and were not financially compensated.
The integrated area under the curve (iAUC) was calculated for both glucose and tirzepatide stimulated insulin secretion using the value of the first time point as the baseline. All values are mean + /- SEM, n = 3/group. A one-way ANOVA with Tukey’s posthoc test was used. Source data

[3] = biological target: T2, mouse GIP receptor (mGIPR), transiently expressed in HEK293T cells for BRET (mouse) (UniProt Q0P543)
T2 sequence: T1 sequence (Q0P543 19-460)

[4] = biological target: T3, mouse GIP receptor (mGIPR), cloned, in membranes of HEK cells (mouse) (UniProt Q0P543)
T3 sequence: T1 sequence (Q0P543 19-460)

## CC[C@H](C)[C@H](NC(=O)[C@H](CO)NC(=O)[C@H](Cc1ccc(O)cc1)NC(=O)[C@H](CC(=O)O)NC(=O)[C@H](CO)NC(=O)[C@@H](NC(=O)[C@H](Cc1ccccc1)NC(=O)[C@@H](NC(=O)CNC(=O)[C@H](CCC(=O)O)NC(=O)[C@H](C)NC(=O)[C@@H](N)Cc1ccc(O)cc1)[C@@H](C)O)[C@@H](C)CC)C(=O)N[C@@H](C)C(=O)N[C@@H](CCSC)C(=O)N[C@@H](CC(=O)O)C(=O)N[C@@H](CCCCN)C(=O)N[C@H](C(=O)N[C@@H](Cc1c[nH]cn1)C(=O)N[C@@H](CCC(N)=O)C(=O)N[C@@H](CCC(N)=O)C(=O)N[C@@H](CC(=O)O)C(=O)N[C@@H](Cc1ccccc1)C(=O)N[C@H](C(=O)N[C@@H](CC(N)=O)C(=O)N[C@@H](Cc1c[nH]c2ccccc12)C(=O)N[C@@H](CC(C)C)C(=O)N[C@@H](CC(C)C)C(=O)N[C@@H](C)C(=O)N[C@@H](CCC(N)=O)C(=O)N[C@@H](CCCCN)C(=O)NCC(=O)N[C@@H](CCCCN)C(=O)N[C@@H](CCCCN)C(=O)N[C@@H](CC(N)=O)C(=O)N[C@@H](CC(=O)O)C(=O)N[C@@H](Cc1c[nH]c2ccccc12)C(=O)N[C@@H](CCCCN)C(=O)N[C@@H](Cc1c[nH]cn1)C(=O)N[C@@H](CC(N)=O)C(=O)N[C@H](C(=O)N[C@H](C(=O)N[C@@H](CCC(N)=O)C(N)=O)[C@@H](C)O)[C@@H](C)CC)C(C)C)[C@@H](C)CC [hGIP]
Mouse GIP receptor [1]; run of 2019-03-15
  Emax: 91.9%
Mouse GIP receptor [1]; run of 2019-04-02
  Emax: 91.5%
Mouse GIP receptor [1]; run of 2019-06-28
  Emax: 93.8%
Mouse GIP receptor [1]; run of 2022-02-17
  Emax: 93.1%

## CC[C@H](C)[C@H](NC(=O)[C@H](CO)NC(=O)[C@H](Cc1ccc(O)cc1)NC(=O)[C@H](CC(=O)O)NC(=O)[C@H](CO)NC(=O)[C@@H](NC(=O)[C@H](Cc1ccccc1)NC(=O)[C@@H](NC(=O)CNC(=O)[C@H](CCC(=O)O)NC(=O)[C@H](C)NC(=O)[C@@H](N)Cc1ccc(O)cc1)[C@@H](C)O)[C@@H](C)CC)C(=O)N[C@@H](C)C(=O)N[C@@H](CCSC)C(=O)N[C@@H](CC(=O)O)C(=O)N[C@@H](CCCCN)C(=O)N[C@H](C(=O)N[C@@H](CCCNC(=N)N)C(=O)N[C@@H](CCC(N)=O)C(=O)N[C@@H](CCC(N)=O)C(=O)N[C@@H](CC(=O)O)C(=O)N[C@@H](Cc1ccccc1)C(=O)N[C@H](C(=O)N[C@@H](CC(N)=O)C(=O)N[C@@H](Cc1c[nH]c2ccccc12)C(=O)N[C@@H](CC(C)C)C(=O)N[C@@H](CC(C)C)C(=O)N[C@@H](C)C(=O)N[C@@H](CCC(N)=O)C(=O)N[C@@H](CCCNC(=N)N)C(=O)NCC(=O)N[C@@H](CCCCN)C(=O)N[C@@H](CCCCN)C(=O)N[C@@H](CO)C(=O)N[C@@H](CC(=O)O)C(=O)N[C@@H](Cc1c[nH]c2ccccc12)C(=O)N[C@@H](CCCCN)C(=O)N[C@@H](Cc1c[nH]cn1)C(=O)N[C@@H](CC(N)=O)C(=O)N[C@H](C(=O)N[C@H](C(=O)N[C@@H](CCC(N)=O)C(N)=O)[C@@H](C)O)[C@@H](C)CC)C(C)C)[C@@H](C)CC [mouse GIP(1-42)NH2]
Mouse GIP receptor [2]; HEK293, read-out: Arthmetic Mean Emax
  Emax: 103%
Mouse GIP receptor [2]; run 2022-10-04, replicate 1
  HillSlope: 0.8118
  Span (four parameter fit): 112.9 Percent Max-Min
  Top (four parameter fit): 112.9 Percent Max-Min
Mouse GIP receptor [2]; run 2022-10-04, replicate 2
  HillSlope: 0.9861
  Span (four parameter fit): 111.3 Percent Max-Min
  Top (four parameter fit): 106.4 Percent Max-Min
Mouse GIP receptor [2]; run 2022-10-06, replicate 1
  HillSlope: 0.7723
  Bottom (four parameter fit): -5.431 Percent Max-Min
  Span (four parameter fit): 105.7 Percent Max-Min
  Top (four parameter fit): 100.3 Percent Max-Min
Mouse GIP receptor [2]; run 2022-10-06, replicate 2
  HillSlope: 0.9288
  Bottom (four parameter fit): -2.463 Percent Max-Min
  Span (four parameter fit): 102 Percent Max-Min
  Top (four parameter fit): 99.51 Percent Max-Min
Mouse GIP receptor [2]; run 2022-10-12
  HillSlope: 1.095
  Bottom (four parameter fit): -1.282 Percent Max-Min
  Span (four parameter fit): 97.15 Percent Max-Min
  Top (four parameter fit): 95.87 Percent Max-Min

## hGIP(3-30): a different GIPR antagonist that has been previously characterized (ref 27) (EGTFISDYSIAMDKIHQQDFVNWLLAQK; Gastric inhibitory polypeptide; UniProt P09681 54-81, looked up, fragment)
Human islets
  Effect on tirzepatide-stimulated insulin secretion: A similar outcome

## human glucose-dependent insulinotropic polypeptide (hGIP) (from UniProt P09681 52-93)
[3]
  Gs recruitment (ligand-induced BRET), EC50: 153 nM
  Gs recruitment (ligand-induced BRET), Emax: 101%
[4]
  [35S]GTPγS binding (G-protein activation), EC50: 0.735 nM
  [35S]GTPγS binding (G-protein activation), Emax: 96.7%
  cAMP generation, EC50: 0.046 nM
